Measured values from patent US20260285816A1, “Piperazinyl-Modified Quinazolinyl-Aryl Urea Derivative, And Preparation Method And Use Thereof” (Guangxi Normal University, priority 2025, published 2026).
Like-named read-outs stand apart in the source and are kept apart here.

How the values were obtained:
Assay type in all cases: cell-based, human
J82 cells = assay: CCK-8 anti-proliferative assay, J82; conditions: Homo sapiens, J82, co-incubated 48 h, read-out: Anti-proliferative activity (IC50 ± standard deviation) J82
Outline: (§1)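 Cells seeded at 5,000/well, grown at 37° C, 5% CO2 to 70% confluence, then treated in triplicate with 1-30 μM compound (nine concentrations) for designated times.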

UM-UC-3 cells = assay: CCK-8 anti-proliferative assay, UM-UC-3; conditions: Homo sapiens, UMUC3, co-incubated 48 h, read-out: Anti-proliferative activity (IC50 ± standard deviation) UM-UC-3
Outline: as §1

T24 cells = assay: CCK-8 anti-proliferative assay, T24; conditions: Homo sapiens, T-24, co-incubated 48 h, read-out: Anti-proliferative activity (IC50 ± standard deviation) T24
Outline: (§2)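 Logarithmic-phase cells are plated at 5,000 cells per well and incubated at 37° C. with 5% CO2. At 70% confluency, compound is added at nine final concentrations from 1 to 30 μM. After exposure, CCK-8 is added and OD at 450 nm measured to calculate IC50.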

5637 cells = assay: CCK-8 anti-proliferative assay, 5637; conditions: Homo sapiens, co-incubated 48 h, read-out: Anti-proliferative activity (IC50 ± standard deviation) 5637
Outline: as §1

143B cells = assay: CCK-8 anti-proliferative assay, 143B; conditions: Homo sapiens, 143B
Outline: as §2

MG-63 cells = assay: CCK-8 anti-proliferative assay, MG-63; conditions: Homo sapiens, MG-63
Outline: as §2

BxPC-3 cells = assay: CCK-8 anti-proliferative assay, BxPC-3; conditions: Homo sapiens, BXPC-3, co-incubated 48 h, read-out: Anti-proliferative activity (IC50 ± standard deviation) BxPC-3
Outline: as §2

PANC-1 cells = assay: CCK-8 anti-proliferative assay, PANC-1; conditions: Homo sapiens, PANC-1, co-incubated 48 h, read-out: Anti-proliferative activity (IC50 ± standard deviation) PANC-1
Outline: as §2

HeLa cells = assay: CCK-8 anti-proliferative assay, HeLa; conditions: Homo sapiens, HeLa, co-incubated 48 h, read-out: Anti-proliferative activity (IC50 ± standard deviation) HeLa
Outline: as §1

MCF-7 cells = assay: CCK-8 anti-proliferative assay, MCF-7; conditions: Homo sapiens, MCF7, co-incubated 48 h, read-out: Anti-proliferative activity (IC50 ± standard deviation) MCF-7
Outline: as §1

A549 cells = assay: CCK-8 anti-proliferative assay, A549; conditions: Homo sapiens, A549, co-incubated 48 h, read-out: Anti-proliferative activity (IC50 ± standard deviation) A549
Outline: as §1

Hep G2 cells = assay: CCK-8 anti-proliferative assay, Hep G2; conditions: Homo sapiens, HepG2, co-incubated 48 h, read-out: Anti-proliferative activity (IC50 ± standard deviation) Hep G2
Outline: as §2

SK-OV-3 cells = assay: CCK-8 anti-proliferative assay, SK-OV-3; conditions: Homo sapiens, SK-OV-3, co-incubated 48 h, read-out: Anti-proliferative activity (IC50 ± standard deviation) SK-OV-3
Outline: as §1

[1] = system: immortalized ureteral epithelial cells (SV-HUC-1); assay: CCK-8 anti-proliferative assay, normal cells SV-HUC-1; conditions: Homo sapiens, SV-HUC1, normal cells, co-incubated 48 h, read-out: Anti-proliferative activity (IC50 ± standard deviation) SV-HUC-1
Outline: as §1

[2] = system: embryonic lung fibroblasts (WI-38); assay: CCK-8 anti-proliferative assay, normal cells WI-38; conditions: Homo sapiens, read-out: Anti-proliferative activity (IC50 ± standard deviation) WI-38
Outline: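 Compound was added at final concentrations of 1 to 30 μM, in triplicate, to cells at 70% confluence (5,000 per well seeded). After co-incubation, CCK-8 was added for 1–4 h depending on the cell line. Inhibition from OD450 relative to untreated cells gave IC50.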

[3] = Table 7, co-incubated 48 h, read-out: Anti-proliferative activity (IC50 ± standard deviation) 143B
[4] = Table 7, co-incubated 48 h, read-out: Anti-proliferative activity (IC50 ± standard deviation) MG-63
[5] = WI-38, Table 9, co-incubated 48 h
[6] = Table 11, co-incubated 48 h, read-out: Anti-proliferative activity (IC50 ± standard deviation) 143B
[7] = Table 11, co-incubated 48 h, read-out: Anti-proliferative activity (IC50 ± standard deviation) MG-63
[8] = WI-38, Table 13, co-incubated 48 h

IC50 (T24 cells; Table 6) [µM] | IC50 (T24 cells; Table 10) [µM] | IC50 (BxPC-3 cells; Table 11) [µM] | IC50 (PANC-1 cells; Table 11) [µM] | IC50 (HeLa cells; Table 12) [µM] | IC50 (MCF-7 cells; Table 12) [µM] | IC50 (A549 cells; Table 13) [µM] | IC50 (SK-OV-3 cells; Table 12) [µM] | SMILES | IC50 (J82 cells; Table 6) [µM] | IC50 (UM-UC-3 cells; Table 6) [µM] | IC50 (5637 cells; Table 6) [µM] | IC50 (143B cells; [3]) [µM] | IC50 (J82 cells; Table 10) [µM] | IC50 (UM-UC-3 cells; Table 10) [µM] | IC50 (5637 cells; Table 10) [µM] | IC50 (143B cells; [6]) [µM] | IC50 (MG-63 cells; [7]) [µM] | IC50 (Hep G2 cells; Table 12) [µM] | IC50 ([1]; Table 13) [µM] | IC50 [2, 8] [µM] | other results
7.31 ± 0.55 | – | – | – | – | – | – | – | COc1cc2ncnc(NCc3cccc(NC(=O)Nc4ccc(Cl)c(Cl)c4)c3)c2cc1OCCCCCCN1CCN(CCN2CCOCC2)CC1 [Compound 8-1o, N-(3-(((7-methoxy-6-((6-(4-(2-morpholinoethyl)piperazin-1-yl)hexyl)oxy)quinazolin-4-yl)amino)methyl)phenyl)-N′-(3,4-dichlorophenyl)urea] | 6.88 ± 0.49 | 5.84 ± 0.53 | 5.34 ± 0.39 | 5.99 ± 0.43 | – | – | – | – | – | – | – | – | IC50 (MG-63 cells; [4]): 5.89 ± 0.47 µM; IC50 (BxPC-3 cells; Table 7): 7.73 ± 0.82 µM; IC50 (PANC-1 cells; Table 7): > 30 µM; IC50 (HeLa cells; Table 8): 12.4 ± 0.89 µM; IC50 (MCF-7 cells; Table 8): 9.33 ± 0.71 µM; IC50 (A549 cells; Table 8): 11.8 ± 0.63 µM; IC50 (Hep G2 cells; Table 8): 6.83 ± 0.52 µM; IC50 (SK-OV-3 cells; Table 9): 9.34 ± 0.98 µM; IC50 ([1]; Table 9): 10.7 ± 0.51 µM; IC50 [2, 5]: 9.93 ± 0.53 µM
– | 7.93 ± 0.22 | 22.4 ± 1.27 | > 30 | 13.7 ± 1.29 | 16.2 ± 1.07 | 27.2 ± 2.04 | 11.9 ± 0.94 | COc1cc2ncnc(NCc3cccc(NC(=O)Nc4ccccc4Cl)c3)c2cc1OCCCCCCN1CCC(CN2CCN(c3ccccn3)CC2)CC1 [Compound 8-2o, N-(3-(((7-methoxy-6-((6-(4-((4-(pyridin-2-yl)piperazin-1-yl)methyl)piperidin-1-yl)hexyl)oxy)quinazolin-4-yl)amino)methyl)phenyl)-N′-(2-chlorophenyl)urea] | – | – | – | – | 16.7 ± 1.52 | 15.9 ± 0.95 | 12.4 ± 0.89 | 13.8 ± 0.82 | 9.92 ± 0.82 | 16 ± 0.96 | 16.2 ± 0.84 | 12.7 ± 0.89 | –
16.3 ± 0.81 | – | – | – | – | – | – | – | COc1cc2ncnc(NCc3cccc(NC(=O)Nc4ccc(C(C)C)cc4)c3)c2cc1OCCCCCCN1CCN(CCN2CCOCC2)CC1 [Compound 8-1i, N-(3-(((7-methoxy-6-((6-(4-(2-morpholinoethyl)piperazin-1-yl)hexyl)oxy)quinazolin-4-yl)amino)methyl)phenyl)-N′-(4-isopropylphenyl)urea] | 22.4 ± 1.82 | 10 ± 0.52 | 10.3 ± 0.97 | 9.31 ± 0.97 | – | – | – | – | – | – | – | – | IC50 (MG-63 cells; [4]): 11.1 ± 0.95 µM; IC50 (BxPC-3 cells; Table 7): 13.3 ± 1.05 µM; IC50 (PANC-1 cells; Table 7): 14.4 ± 0.67 µM; IC50 (HeLa cells; Table 8): 14.1 ± 0.89 µM; IC50 (MCF-7 cells; Table 8): 11.5 ± 0.76 µM; IC50 (A549 cells; Table 8): 16 ± 0.64 µM; IC50 (Hep G2 cells; Table 8): 10.6 ± 0.89 µM; IC50 (SK-OV-3 cells; Table 9): 7.68 ± 0.55 µM; IC50 ([1]; Table 9): 19.3 ± 1.39 µM; IC50 [2, 5]: 20.3 ± 1.63 µM
– | 5.33 ± 0.52 | 10.3 ± 0.93 | 14.9 ± 0.98 | 6.39 ± 0.68 | 6.32 ± 0.49 | 11.1 ± 0.83 | 8.69 ± 0.72 | COc1cc2ncnc(NCc3cccc(NC(=O)NC4CCCCC4)c3)c2cc1OCCCCCCN1CCC(CN2CCN(c3ccccn3)CC2)CC1 [Compound 8-2z, N-(3-(((7-methoxy-6-((6-(4-((4-(pyridin-2-yl)piperazin-1-yl)methyl)piperidin-1-yl)hexyl)oxy)quinazolin-4-yl)amino)methyl)phenyl)-N′-cyclohexylurea] | – | – | – | – | 3.93 ± 0.22 | 3.71 ± 0.19 | 3.96 ± 0.19 | 4.77 ± 0.26 | 4.05 ± 0.34 | 5.23 ± 0.52 | 8.02 ± 0.81 | 10.9 ± 0.59 | IC50 (143B cells; read-out: IC50 values, osteosarcoma cells 143B): < 5 µM; IC50 (MG-63 cells; read-out: IC50 values, osteosarcoma cells MG-63): < 5 µM
– | 6.02 ± 0.46 | 18.9 ± 1.24 | > 30 | 6.42 ± 0.69 | 7.29 ± 0.63 | > 30 | 11.7 ± 0.88 | COc1ccc(NC(=O)Nc2cccc(CNc3ncnc4cc(OC)c(OCCCCCCN5CCC(CN6CCN(c7ccccn7)CC6)CC5)cc34)c2)cc1 [Compound 8-2l, N-(3-(((7-methoxy-6-((6-(4-((4-(pyridin-2-yl)piperazin-1-yl)methyl)piperidin-1-yl)hexyl)oxy)quinazolin-4-yl)amino)methyl)phenyl)-N′-(4-methoxyphenyl)urea] | – | – | – | – | 7.83 ± 0.69 | 12 ± 0.94 | 9.12 ± 0.59 | 6.75 ± 0.41 | 7.69 ± 0.58 | 4.74 ± 0.62 | 10.9 ± 0.69 | 13.9 ± 0.71 | –
– | 4.07 ± 0.19 | 11 ± 0.85 | 7.36 ± 0.42 | 5.02 ± 0.49 | 5.71 ± 0.54 | 7.01 ± 0.62 | 6.23 ± 0.56 | COc1cc2ncnc(NCc3cccc(NC(=O)NCc4ccccc4)c3)c2cc1OCCCCCCN1CCC(CN2CCN(c3ccccn3)CC2)CC1 [Compound 8-2y, N-(3-(((7-methoxy-6-((6-(4-((4-(pyridin-2-yl)piperazin-1-yl)methyl)piperidin-1-yl)hexyl)oxy)quinazolin-4-yl)amino)methyl)phenyl)-N′-benzylurea] | – | – | – | – | 4.13 ± 0.32 | 3.92 ± 0.24 | 4.92 ± 0.31 | 6.74 ± 0.52 | 5.91 ± 0.46 | 5.92 ± 0.66 | 8.96 ± 0.67 | 9.89 ± 0.23 | –
10.4 ± 0.92 | – | – | – | – | – | – | – | COc1cc2ncnc(NCc3cccc(NC(=O)Nc4ccc(F)cc4)c3)c2cc1OCCCCCCN1CCN(CCN2CCOCC2)CC1 [Compound 8-1l, N-(3-(((7-methoxy-6-((6-(4-(2-morpholinoethyl)piperazin-1-yl)hexyl)oxy)quinazolin-4-yl)amino)methyl)phenyl)-N′-(4-fluorophenyl)urea] | 6.85 ± 0.57 | 16.8 ± 0.88 | 15.8 ± 0.95 | 9.03 ± 0.61 | – | – | – | – | – | – | – | – | IC50 (MG-63 cells; [4]): 7.03 ± 0.48 µM; IC50 (BxPC-3 cells; Table 7): 13 ± 0.97 µM; IC50 (PANC-1 cells; Table 7): > 30 µM; IC50 (HeLa cells; Table 8): 21.3 ± 1.24 µM; IC50 (MCF-7 cells; Table 8): 15.2 ± 0.93 µM; IC50 (A549 cells; Table 8): 21.4 ± 1.96 µM; IC50 (Hep G2 cells; Table 8): 7.29 ± 0.54 µM; IC50 (SK-OV-3 cells; Table 9): 7.72 ± 0.59 µM; IC50 ([1]; Table 9): 15.9 ± 0.86 µM; IC50 [2, 5]: 22.8 ± 0.94 µM
